Target: RNA-directed RNA polymerase (Hepacivirus hominis, UniProt O39930)
Experiment: Inhibition of Hepatitis C virus NS5B RNA-dependent RNA polymerase
Settings: read-out: IC50

Chain of RNA-directed RNA polymerase (O39930 whole entry): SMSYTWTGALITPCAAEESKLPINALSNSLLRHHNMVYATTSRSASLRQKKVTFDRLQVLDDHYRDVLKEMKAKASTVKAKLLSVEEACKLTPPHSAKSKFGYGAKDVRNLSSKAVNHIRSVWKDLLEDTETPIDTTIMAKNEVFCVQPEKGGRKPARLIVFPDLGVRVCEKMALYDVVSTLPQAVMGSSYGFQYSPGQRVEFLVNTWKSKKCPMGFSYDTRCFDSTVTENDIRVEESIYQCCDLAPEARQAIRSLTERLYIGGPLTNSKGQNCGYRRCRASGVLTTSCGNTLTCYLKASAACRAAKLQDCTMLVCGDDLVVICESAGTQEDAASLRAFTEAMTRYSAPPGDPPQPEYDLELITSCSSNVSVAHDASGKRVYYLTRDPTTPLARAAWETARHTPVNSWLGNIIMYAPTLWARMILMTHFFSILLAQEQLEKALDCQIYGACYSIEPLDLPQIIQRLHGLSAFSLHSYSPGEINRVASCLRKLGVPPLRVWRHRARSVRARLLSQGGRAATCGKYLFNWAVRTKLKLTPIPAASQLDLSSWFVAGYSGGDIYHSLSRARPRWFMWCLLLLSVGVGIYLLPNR

Row | Structure (SMILES) | IC50 [µM]
1 | CC(C)c1ccc(-c2nc(SCC3CCCCO3)[nH]c(=O)c2C#N)cc1 (stereo unspecified) | 17
2 | CCCCCSc1nc(-c2ccccc2C(F)(F)F)c(C#N)c(=O)[nH]1 | 20
3 | Cc1cccc(CSc2nc(-c3ccccc3C(F)(F)F)c(C#N)c(=O)[nH]2)c1 | 14
4 | CCCCCSc1nc(-c2ccc(Br)cc2)c(C#N)c(=O)[nH]1 | 11
5 | Cc1cccc(CSc2nc(-c3ccc(Cl)cc3Cl)c(C#N)c(=O)[nH]2)c1 | 33
6 | CC(C)c1ccc(-c2nc(SCc3ccccc3Br)[nH]c(=O)c2C#N)cc1 | 3.8
7 | Cc1ccccc1-c1nc(SCc2cccc([N+](=O)[O-])c2)[nH]c(=O)c1C#N | 37
8 | N#Cc1c(-c2ccccc2C(F)(F)F)nc(SCc2ccccc2Br)[nH]c1=O | 21
9 | CCCCCSc1nc(-c2cccc(C)c2)c(C#N)c(=O)[nH]1 | 18
10 | COc1cc(CSc2nc(-c3ccc(Br)cc3)c(C#N)c(=O)[nH]2)cc(OC)c1 | 13
11 | N#Cc1c(-c2ccc(F)cc2F)nc(SCc2cccc([N+](=O)[O-])c2)[nH]c1=O | 32
12 | COc1cc(CSc2nc(-c3ccccc3C(F)(F)F)c(C#N)c(=O)[nH]2)cc(OC)c1 | 12
13 | N#Cc1c(-c2cccc(C(F)(F)F)c2)nc(SCc2cccc([N+](=O)[O-])c2)[nH]c1=O | 13
14 | CCCCCSc1nc(-c2ccccc2C)c(C#N)c(=O)[nH]1 | 18
15 | Cc1ccccc1-c1nc(SCc2ccccc2Br)[nH]c(=O)c1C#N | 32
16 | N#Cc1c(-c2ccc(Br)cc2)nc(SCc2ccccc2C(F)(F)F)[nH]c1=O | 7.1
17 | N#Cc1c(-c2ccc(F)cc2F)nc(SCc2ccccc2Br)[nH]c1=O | 13
18 | N#Cc1c(-c2cccc(C(F)(F)F)c2)nc(SCCC(=O)Oc2ccccc2)[nH]c1=O | 13
19 | N#Cc1c(-c2ccc(Br)cc2)nc(SCC2CCCCO2)[nH]c1=O (stereo unspecified) | 50
20 | Cc1cccc(CSc2nc(-c3cc(Cl)cc(Cl)c3)c(C#N)c(=O)[nH]2)c1 | 29
21 | CCCCCSc1nc(-c2ccc(F)cc2F)c(C#N)c(=O)[nH]1 | 12
22 | CC(C)c1ccc(-c2nc(SCc3cccc([N+](=O)[O-])c3)[nH]c(=O)c2C#N)cc1 | 10
23 | Cc1cccc(CSc2nc(-c3ccc(C(C)C)cc3)c(C#N)c(=O)[nH]2)c1 | 12
24 | N#Cc1c(-c2ccc(Cl)cc2Cl)nc(SCc2ccc(OC(F)(F)F)cc2)[nH]c1=O | 11
25 | N#Cc1c(-c2ccc(Cl)cc2Cl)nc(SCCCc2ccccc2)[nH]c1=O | 12

Row | Structure (SMILES) | IC50 [µM]
26 | COc1cc(CSc2nc(-c3ccc(Cl)cc3Cl)c(C#N)c(=O)[nH]2)cc(OC)c1 | 34
27 | COc1cc(CSc2nc(-c3ccc(F)cc3F)c(C#N)c(=O)[nH]2)cc(OC)c1 | 19
28 | CCCCCSc1nc(-c2cccc(C(F)(F)F)c2)c(C#N)c(=O)[nH]1 | 12
29 | CC(C)c1ccc(-c2nc(SCc3ccc(OC(F)(F)F)cc3)[nH]c(=O)c2C#N)cc1 | 9.9
30 | Cc1cccc(CSc2nc(-c3cc(F)cc(F)c3)c(C#N)c(=O)[nH]2)c1 | 27
31 | COc1cc(CSc2nc(-c3cccc(C(F)(F)F)c3)c(C#N)c(=O)[nH]2)cc(OC)c1 | 11
32 | Cc1cccc(CSc2nc(-c3ccc(F)cc3F)c(C#N)c(=O)[nH]2)c1 | 57
33 | Cc1cccc(CSc2nc(-c3cccc(C(F)(F)F)c3)c(C#N)c(=O)[nH]2)c1 | 14
34 | COc1cc(CSc2nc(-c3cc(Cl)cc(Cl)c3)c(C#N)c(=O)[nH]2)cc(OC)c1 | 34
35 | Cc1cccc(-c2nc(SCc3cccc([N+](=O)[O-])c3)[nH]c(=O)c2C#N)c1 | 20
36 | CCCCCSc1nc(-c2ccc(C(C)C)cc2)c(C#N)c(=O)[nH]1 | 12
37 | COc1cc(CSc2nc(-c3ccccc3C)c(C#N)c(=O)[nH]2)cc(OC)c1 | 25
38 | COc1cc(CSc2nc(-c3cccc(C)c3)c(C#N)c(=O)[nH]2)cc(OC)c1 | 30
39 | Cc1cccc(CSc2nc(-c3ccccc3C)c(C#N)c(=O)[nH]2)c1 | 14
40 | N#Cc1c(-c2ccc(Br)cc2)nc(SCc2ccccc2Br)[nH]c1=O | 10
41 | COc1cc(CSc2nc(-c3cc(F)cc(F)c3)c(C#N)c(=O)[nH]2)cc(OC)c1 | 15
42 | Cc1cccc(-c2nc(SCc3ccc(OC(F)(F)F)cc3)[nH]c(=O)c2C#N)c1 | 8.6
43 | N#Cc1c(-c2ccccc2C(F)(F)F)nc(SCc2ccc(OC(F)(F)F)cc2)[nH]c1=O | 9.2
44 | N#Cc1c(-c2ccc(Br)cc2)nc(SCc2ccc(OC(F)(F)F)cc2)[nH]c1=O | 8.7
45 | CCCCCSc1nc(-c2ccc(Cl)cc2Cl)c(C#N)c(=O)[nH]1 | 17
46 | Cc1cccc(CSc2nc(-c3cccc(C)c3)c(C#N)c(=O)[nH]2)c1 | 22
47 | N#Cc1c(-c2ccc(Br)cc2)nc(SCc2cccc([N+](=O)[O-])c2)[nH]c1=O | 14
48 | N#Cc1c(-c2ccc(Br)cc2)nc(SCCC(=O)Oc2ccccc2)[nH]c1=O | 30
49 | COc1cc(CSc2nc(-c3ccc(C(C)C)cc3)c(C#N)c(=O)[nH]2)cc(OC)c1 | 25
50 | Cc1cccc(CSc2nc(-c3ccc(Br)cc3)c(C#N)c(=O)[nH]2)c1 | 11

Same assay, conditions: read-out: pIC50 (converted)

Row | Structure (SMILES) | IC50 [µM]
51 | N#Cc1c(-c2ccc(Br)cc2)nc(SCc2ccccc2C(F)(F)F)[nH]c1=O | 7.24

Source: ChEMBL document CHEMBL3046041, “3D QSAR kNN-MFA studies on thiouracil derivatives as hepatitis C virus inhibitors” (Med Chem Res, 2011)
